Results as given in BigSolDB 2.1.

OCc1cn(Cc2ccccc2)nn1
solubility (mole fraction) (in ethanol, 292.15 K): 0.0566 | solubility (mole fraction) (in ethanol, 295.15 K): 0.0681 | solubility (mole fraction) (in ethanol, 298.15 K): 0.0833 | solubility (mole fraction) (in ethanol, 301.15 K): 0.103 | solubility (mole fraction) (in ethanol, 304.15 K): 0.129 | solubility (mole fraction) (in ethanol, 307.15 K): 0.158 | solubility (mole fraction) (in ethanol, 310.15 K): 0.198 | solubility (mole fraction) (in isopropanol, 292.15 K): 0.0322 | solubility (mole fraction) (in isopropanol, 295.15 K): 0.039 | solubility (mole fraction) (in isopropanol, 298.15 K): 0.047 | solubility (mole fraction) (in isopropanol, 301.15 K): 0.0576 | solubility (mole fraction) (in isopropanol, 304.15 K): 0.0707 | solubility (mole fraction) (in isopropanol, 307.15 K): 0.0889 | solubility (mole fraction) (in isopropanol, 310.15 K): 0.112 | solubility (mole fraction) (in methanol, 292.15 K): 0.122 | solubility (mole fraction) (in methanol, 295.15 K): 0.146 | solubility (mole fraction) (in methanol, 298.15 K): 0.172 | solubility (mole fraction) (in methanol, 301.15 K): 0.2 | solubility (mole fraction) (in methanol, 304.15 K): 0.222 | solubility (mole fraction) (in methanol, 307.15 K): 0.262 | solubility (mole fraction) (in methanol, 310.15 K): 0.3 | solubility (mole fraction) (in n-butanol, 292.15 K): 0.0342 | solubility (mole fraction) (in n-butanol, 295.15 K): 0.0408 | solubility (mole fraction) (in n-butanol, 298.15 K): 0.0481 | solubility (mole fraction) (in n-butanol, 301.15 K): 0.0579 | solubility (mole fraction) (in n-butanol, 304.15 K): 0.0695 | solubility (mole fraction) (in n-butanol, 307.15 K): 0.0832 | solubility (mole fraction) (in n-butanol, 310.15 K): 0.1 | solubility (mole fraction) (in n-propanol, 292.15 K): 0.0422 | solubility (mole fraction) (in n-propanol, 295.15 K): 0.0502 | solubility (mole fraction) (in n-propanol, 298.15 K): 0.0607 | solubility (mole fraction) (in n-propanol, 301.15 K): 0.0742 | solubility (mole fraction) (in n-propanol, 304.15 K): 0.0909 | solubility (mole fraction) (in n-propanol, 307.15 K): 0.113 | solubility (mole fraction) (in n-propanol, 310.15 K): 0.141 | solubility (mole fraction) (in water, 292.15 K): 0.00147 | solubility (mole fraction) (in water, 295.15 K): 0.0017 | solubility (mole fraction) (in water, 298.15 K): 0.00197 | solubility (mole fraction) (in water, 301.15 K): 0.00237 | solubility (mole fraction) (in water, 304.15 K): 0.0029 | solubility (mole fraction) (in water, 307.15 K): 0.00356 | solubility (mole fraction) (in water, 310.15 K): 0.00433
